ChEMBL document CHEMBL1137819, “New 9-thiocyanatopupukeanane sesquiterpenes from the nudibranch Phyllidia varicosa and its sponge-prey Axinyssa aculeata” (J Nat Prod, 2003)
Where “and” joins values, the source holds several entries; their conditions need not be identical. Identical values can stand only once. Calls of active or inactive are those of the source. The rule behind the calls is not given here.

Assays:
Candida albicans = assay: Antimicrobial activity against Candida albicans after 24 hrs; assay type: functional, organism-based
Artemia salina = assay: Toxicity against Artemia salina assessed as mortality after 24 hrs; assay type: organism-based; conditions: in vivo
Bacillus subtilis = assay: Antimicrobial activity against Bacillus subtilis after 24 hrs; assay type: functional, organism-based

CC(C)[C@@H]1C[C@]2(C)C[C@]3(C)C[C@H]1[C@H]2C[C@@H]3SC#N.CC(C)[C@@H]1C[C@]2(C)C[C@]3(C)C[C@H]1[C@H]2C[C@H]3SC#N
Activity (Candida albicans): Active
Activity (Artemia salina): 90% and 35%
LD50 (Artemia salina): 5 ppm
Activity (Bacillus subtilis): inactive
